Measurements: US10059689B2, “Substituted heteroaryl compounds and methods of use” (Sunshine Lake Pharma Co., Ltd., priority 2014, dated 2018)

Target: T1, JAK3 (h) (Homo sapiens, UniProt P52333)
T1 construct: purchased Millipore UK Ltd (contract assay service)
T1 sequence (P52333 1-1124): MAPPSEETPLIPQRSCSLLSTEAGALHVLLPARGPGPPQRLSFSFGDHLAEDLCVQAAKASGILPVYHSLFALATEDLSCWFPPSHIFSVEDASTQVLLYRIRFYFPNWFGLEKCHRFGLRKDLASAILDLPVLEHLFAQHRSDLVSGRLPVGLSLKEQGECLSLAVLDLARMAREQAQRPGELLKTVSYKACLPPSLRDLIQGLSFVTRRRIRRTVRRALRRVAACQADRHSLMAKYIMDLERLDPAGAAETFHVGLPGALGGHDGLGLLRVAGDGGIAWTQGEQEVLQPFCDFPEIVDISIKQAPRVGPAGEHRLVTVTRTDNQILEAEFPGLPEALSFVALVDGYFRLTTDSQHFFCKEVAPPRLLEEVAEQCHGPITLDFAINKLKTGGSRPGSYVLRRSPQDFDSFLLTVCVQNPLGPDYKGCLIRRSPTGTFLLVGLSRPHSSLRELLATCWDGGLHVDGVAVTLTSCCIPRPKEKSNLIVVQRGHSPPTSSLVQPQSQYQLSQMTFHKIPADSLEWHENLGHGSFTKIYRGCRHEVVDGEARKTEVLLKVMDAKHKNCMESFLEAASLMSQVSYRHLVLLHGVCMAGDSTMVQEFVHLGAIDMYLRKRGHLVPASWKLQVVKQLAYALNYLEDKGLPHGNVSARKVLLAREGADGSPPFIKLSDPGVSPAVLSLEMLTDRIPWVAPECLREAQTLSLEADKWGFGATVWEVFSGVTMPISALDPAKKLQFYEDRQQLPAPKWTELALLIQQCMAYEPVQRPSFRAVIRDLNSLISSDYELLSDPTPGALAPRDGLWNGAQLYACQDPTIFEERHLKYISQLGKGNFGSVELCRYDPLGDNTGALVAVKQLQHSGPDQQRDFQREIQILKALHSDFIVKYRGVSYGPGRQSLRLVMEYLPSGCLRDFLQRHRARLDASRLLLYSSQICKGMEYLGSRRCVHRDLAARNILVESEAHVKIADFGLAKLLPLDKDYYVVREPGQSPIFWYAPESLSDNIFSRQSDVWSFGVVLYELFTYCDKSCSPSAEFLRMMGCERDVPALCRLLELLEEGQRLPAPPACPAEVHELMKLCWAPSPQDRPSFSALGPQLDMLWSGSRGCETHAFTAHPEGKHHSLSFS
Experiment: JAK3 (h) kinase assay
Assay type: biochemical
Description: Kinase assays can be performed by measurement of incorporation of γ-33P ATP into immobilized myelin basic protein (MBP). High binding white 384 well plates (Greiner) are coated with MBP (Sigma #M-1891) by incubation of 60 μL/well of 20 μg/mL MBP in Tris-buffered saline (TBS; 50 mM Tris pH 8.0, 138 mM NaCl, 2.7 mM KCl) for 24 h at 4° C. Plates are washed 3× with 100 μL TBS. Kinase reactions are carried out in a total volume of 34 μL in kinase buffer (according to the need to make, for example, 5 mM Hepes pH 7.6, 15 mM NaCl, 0.01% bovine gamma globulin (Sigma #I-5506), 10 mM MgCl2, 1 mM DTT, 0.02% TritonX-100). Compound dilutions are performed in DMSO and added to assay wells to a final DMSO concentration of 1%. Each data point is measured in duplicate, and at least two duplicate assays are performed for each individual compound determination. Enzyme is added to final concentrations of 10 nM or 20 nM, for example. A mixture of unlabeled ATP and γ-33P ATP is added to start the reaction (2×10^6 cpm of γ-33P ATP per well (3000 Ci/mmole) and 10 μM unlabeled ATP, typically. The reactions are carried out for 1 h at room temperature with shaking Plates are washed 7× with TBS, followed by the addition of 50 μL/well scintillation fluid (Wallac). Plates are read using a Wallac Trilux counter. This is only one format of such assays; various other formats are possible, as known to one skilled in the art.
The above assay procedure can be used to determine the IC50 for inhibition and/or the inhibition constant, Ki. The IC50 is defined as the concentration of compound required to reduce the enzyme activity by 50% under the condition of the assay. The IC50 value is estimated by preparing a 10 point curve using a ½ log dilution series (for example, a typical curve may be prepared using the following compound concentrations: 3 μM, 1 μM, 0.3 μM, 0.1 μM, 0.03 μM, 0.01 μM, 0.003 μM, 0.001 μM, 0.0003 μM and 0 μM).
JAK3 (h) is incubated with 8 mM MOPS pH 7.0, 0.2 mM EDTA, 500 μM GGEEEEYFELVKKKK, 10 mM MgAcetate and [γ-^33P-ATP] (specific activity approx. 500 cpm/pmol, concentration as required). The reaction is initiated by the addition of the MgATP mix. After incubation for 40 minutes at room temperature, the reaction is stopped by the addition of 3% phosphoric acid solution. 10 μL of the reaction is then spotted onto a P30 filtermat and washed three times for 5 minutes in 75 mM phosphoric acid and once in methanol prior to drying and scintillation counting.
The kinase assays described herein were performed at Millipore UK Ltd, Dundee Technology Park, Dundee DD2 1SW, UK.

In the case of `Cc1c2ccc(Nc3ncc(Cl)c(NC4CCN(c5ccc(C#N)cn5)CC4)n3)cc2nn1C` [Ex. 4], the IC50 is reported as 0.021 µM.
For `CN(c1nc(Nc2cnn(C)c2)ncc1Cl)C1CCN(c2ccc(C#N)cn2)CC1` [Ex. 5, 6-(4-((5-chloro-2-((1-methyl-1H-pyrazol-4-yl)amino)pyrimidin-4-yl) (methyl)amino)piperidin-1-yl)nicotinonitrile], the IC50 was 0.013 µM.
`Cc1nn(C)cc1Nc1ncc(Cl)c(NC2CCN(c3ccc(C#N)cn3)CC2)n1` [Ex. 10, 6-(4-((5-chloro-2-((1,3-dimethyl-1H-pyrazol-4-yl)amino)pyrimidin-4-yl)amino)piperidin-1-yl)nicotinonitrile] showed an IC50 of 0.082 µM.
`Cc1nn(C)cc1Nc1ncc(Cl)c(NC2CCN(c3ccc(C#N)nn3)CC2)n1` [Ex. 11, 6-(4-((5-chloro-2-((1,3-dimethyl-1H-pyrazol-4-yl)amino)pyrimidin-4-yl)amino)piperidin-1-yl)pyridazine-3-carbonitrile] gave an IC50 of 0.263 µM.
`Cc1c2ccc(Nc3ncc(Cl)c(NC4CCN(c5ccc(C#N)nn5)CC4)n3)cc2nn1C` [Ex. 12, 6-(4-((5-chloro-2-((2,3-dimethyl-2H-indazol-6-yl)amino)pyrimidin-4-yl)amino)piperidin-1-yl)pyridazine-3-carbonitrile] was tested, and the IC50 was 0.02 µM.
For `Cc1cc(Nc2ncc(Cl)c(NC3CCN(c4ccc(C#N)nn4)CC3)n2)nn1C` [Ex. 13, 6-(4-((5-chloro-2-((1,5-dimethyl-1H-pyrazol-3-yl)amino)pyrimidin-4-yl)amino)piperidin-1-yl)pyridazine-3-carbonitrile], the IC50 was 0.073 µM.
